From ChEMBL document CHEMBL1147213, “Impact on farnesyltransferase inhibition of 4-chlorophenyl moiety replacement in the Zarnestra series” (Eur J Med Chem, 2007)

molecular target: not listed separately; experiment: Inhibition of FTase by SPA; design: species or system Homo sapiens

Row | SMILES | IC50 [nM]
1 | CCc1nccn1C(c1ccc2c(c1)c(-c1cccc(Cl)c1)nc1nnnn12)c1cncn1C (stereo not drawn) | 5
2 | N#Cc1ccc(Cn2cncc2C(O)c2ccc3c(c2)c(-c2cccc(Cl)c2)cc2nnnn23)cc1 (stereo not drawn) | 11
3 | Cn1cncc1C(N)(c1ccc(Cl)cc1)c1ccc2c(c1)c(-c1cccc(Cl)c1)cc1nnnn12 (stereo not drawn) | 3.5
4 | Cn1cncc1C(c1ccc2c(c1)c(-c1cccc(Cl)c1)nc1nnnn12)n1ccnc1-c1ccc(F)cc1 (stereo not drawn) | 4
5 | Cn1cncc1C(N)(c1ccc2c(c1)c(-c1cccc(Cl)c1)nc1nnnn12)c1ccc(Cl)s1 (stereo not drawn) | < 100
6 | Cn1cncc1C(c1ccc2c(c1)c(-c1cccc(Cl)c1)nc1nnnn12)n1ccnc1-c1ccccc1 (stereo not drawn) | 1
7 | Cn1cncc1C(O)(c1ccc2c(c1)c(-c1cccc(Cl)c1)nc1nnnn12)c1ccc(Cl)s1 (stereo not drawn) | 16
8 | Cn1cncc1C(N)(c1ccc(Cl)cc1)c1ccc2c(c1)c(-c1cccc(Cl)c1)nc1nnnn12 (stereo not drawn) | 3.5
9 | Cn1cncc1C(c1ccc2c(c1)c(-c1cccc(Cl)c1)nc1nnnn12)n1ccnc1-c1cccc(C#N)c1 (stereo not drawn) | 1
10 | Cn1cncc1[C@](N)(c1ccc(Cl)cc1)c1ccc2c(c1)c(-c1cccc(Cl)c1)cc(=O)n2C [(S)-TIPIFARNIB] | 0.9
11 | OC(c1ccc2c(c1)c(-c1cccc(Cl)c1)cc1nnnn12)c1cncn1Cc1ccc(Cl)cc1 (stereo not drawn) | > 100

species on record: Homo sapiens; experiment: Inhibition of FTase at 100 nM by SPA

Row | SMILES | inhibition [%]
12 | Cn1cncc1C(N)(c1ccc2c(c1)c(-c1cccc(Cl)c1)nc1nnnn12)c1ccc(Cl)s1 (stereo not drawn) | 69
13 | OC(c1ccc2c(c1)c(-c1cccc(Cl)c1)cc1nnnn12)c1cncn1Cc1ccc(Cl)cc1 (stereo not drawn) | 32
